Reference: patent US20250154105A1, “POLYCYCLIC COMPOUND AND USE THEREOF” (TYK MEDICINES, INC., priority 2021, published 2025)
pIC50: −log10 of the molar value.

Experiments:
[1] = system: human pleural mesothelioma cells NCI-H226; assay: Cell anti-proliferation experiment (CCK8), NCI-H226; format: cell-based
Excerpt: TEST EXAMPLE 1 CELL ANTI-PROLIFERATION EXPERIMENT
Determination of proliferation inhibition of YAP-TEAD inhibitor compounds on human pleural mesothelioma cells NCI-H226
Experimental materials and equipments: Human pleural mesothelioma cells NCI-H226 was purchased from NANJING COBIOER BIOSCIENCES CO., LTD. RPMI-1640 medium (Bio-Channel), DMSO (dimethyl sulfoxide), CCK8 (WST-8) Cell Assay Kit (Beyotime), 0.25% EDTA-Tripsin (trypsin digest), 1×PBS (phosphate buffer, PH7.2), 96-well plate (Corning), fetal bovine serum (FBS), 10,000 U/mL penicillin-G/streptomycin, high-speed freezing centrifuge (EPPENDORF 5810R), enzyme-linked immunosorbent assay (Tecan Spark).
1. Cell plating • A) Tumor cells were cultured to 80-90% density in RPMI-1640 (containing 10% FBS and 100 U/mL penicillin-G/streptomycin) under the condition of 37° C., 5% CO2 and saturated humidity. • B) The culture medium was removed from the 10 cm culture dish. • C) Cells were washed with 10 ml 1×PBS. • D) 4 ml of 0.25% EDTA-Tripsin was added to digest pancreatin for 5 minutes in an incubator at 37° C. and 5% CO2. Then the mixture was transferred to a 15 ml centrifuge tube, and centrifuged for 5 minutes at 200 g. The supernatant was discarded to obtain cell precipitation. • E) The cell precipitation was resuspended with 4 ml of […], counted and adjusted to 10,000 cells/ml. • F) The cell suspension was added to a 96-well plate with a volume of 100 μL per well and cultured overnight in an incubator at 37° C. and 5% CO2.
• Compound dilution • A) Preparation of gradient dilution solutions of the tested compounds: the tested compounds was configured to 1 mM stock solution. Then […] of stock solution was dissolved in 1.5 ml of DMSO-free culture solution, and then 3-fold continuous gradient dilution with 0.1% DMSO culture solution was performed to get a total of 9 concentrations. The diluted concentrations of the compound were as follows: 333.33 nM, 111.11 nM, 37.03 nM, 12.35 nM, 4.15 nM, 1.37 nM, 0.46 nM, 0.15 nM • B) After full mixing, 100 μL of culture compound solution was taken to replace the culture solution in the cell culture plate, with 4 duplicated wells at each concentration; • C) The cells were transferred to the incubator to incubate for 3 days.
• A) the cell culture plate was taken out and added with 10 μl of CCK-8 (WST-8) solution per well in the biosafety cabinet; • B) The cell culture plate was put back into the incubator and continued to incubate for 3 hours; • C) 450 nm wavelength was selected to measure absorbance value on TECAN enzyme linked immunosorbent assay detector.
The following formula was used to calculate the cell viability (% Cell Viability); • Cell Viability (%)=[A(Drug-added)-A(Blank)]/[A(0 Drug-added)-A(blank)][…] • A (Drug-added): The absorbance of wells containing cells, CCK8 solution, and drug solution. • A (Blank): The absorbance of wells containing culture medium and CCK8 solution, but without cells. • A (0 Drug-added): The absorbance of wells containing cells, CCK8 solution, but without drug solution. • Cell viability: Cell proliferation viability or cytotoxicity viability was determined by the IC50 value obtained by curve fitting using GraphPad Prism 8 software.

YAP-TEAD = YAP-TEAD inhibitor activity by Nano luciferase method (8xGTiiC-nLuc reporter in 293T cells); format: cell-based; conditions: Homo sapiens, HEK-293T, 48 hours incubation, read-out: Nano-luciferase detection (IC50)
Excerpt: EXAMPLE 2: YAP-TEAD INHIBITOR ACTIVITY WAS DETECTED BY NANO LUCIFERASE METHOD
(1) Experimental materials and equipments: 293T cells were purchased from NANJING COBIOER BIOSCIENCES CO., LTD. DMEM medium (High sugar, no phenol red, Bio-Channel), DMSO (dimethyl sulfoxide), Lipo6000™ transfection reagent (Beyotime), pGL3B-8xGTiiC-nLuc-CMV-fLuc plasmid, 0.25% EDTA-Tripsin (trypsin digest), 1×PBS (phosphate buffer, PH7.2), 96-well white cell culture plate (PerkinElmer), fetal bovine serum (FBS), 10,000 U/mL penicillin-G/streptomycin, high-speed freezing centrifuge (EPPENDORF 5810R), 37° C. CO2 incubator, Vi-cell® Cell Counter, Envision Microplate Reader (PerkinElmer).
The revived 293T cells were inoculated into a 10 cm culture dish and placed in an incubator with 5% CO2, and cultured at constant temperature of 37° C. To ensure transfection efficiency, cells at logarithmic phase (cell density of approximately 50%-70%) should be used.
On the day before transfection, cells at the logarithmic phase were digested with Trypsin-EDTA, and culture medium was added to terminate digestion. The cell suspension was prepared by blowing and mixing using a pipette.
Cell concentration was measured using Vi-cell, and the cell suspension was diluted to a suspension of 5*10^^5 cells per milliliter. After preparing the cell suspension, the suspension was gently mixed. 10 ml of liquid was added to a 10 cm culture dish. In this way, the number of cells in each 10 cm culture dish was 5*10^^6. The cells were incubated at a constant temperature of 37° C. for 1 day in an incubator with 5% CO2.
Two clean and sterile centrifuge tubes were taken and added with 750 μL opti-MEM Medium without antibiotics and serum, respectively. Then one tube was added with 15 μg Plasmid (pGL3B-8xGTiiC-nLuc-CMV-fLuc), and gently blew and mixed well using a pipette; the other tube was added with Lipo6000 transfection reagent, and gently blew and mixed using a pipette. After standing at room temperature for 5 minutes, the culture solution containing DNA was added gently to the culture solution containing Lipo6000 transfection reagent, and mixed well by gently inverting the centrifuge tube, then standing at room temperature for 5 minutes.
The above mixture was added evenly to a 10 cm culture dish and replaced with fresh complete culture medium after 6 hours of cultivation.
After transfection for 1 day, cells were digested with Trypsin EDTA, and culture medium was added to terminate the digestion. The cell suspension was prepared by blowing and mixing using a pipette.
Cell concentration was measured using Vi-cell, and the cell suspension was diluted to a suspension of 20000 cells per milliliter.
After preparing the cell suspension, the suspension was gently mixed, and added to 96-well plate with 100 μL per well. Thus, the density of the cells to be tested is 2000 cells per well.
The inoculated cell culture plate was placed in the incubator for cultivation, and after about 24 hour, compounds with concentration gradient were added.
10 mM compound stock solution was diluted with culture medium to 50 μM. Compound solution of 50 μM was added to the third column of the deep well plate, 216 μL of culture medium containing 0.5% DMSO was added to the fourth to eleventh columns, successively.
Gradient dilution: taking 100 μL of solution from the third column and adding the solution to the fourth column and mixing well; then taking 100 µL of solution from the fourth column again and adding the solution to the fifth column, repeating this operation until the eleventh column.
Taking 25 μL of compound solution from the deep well plate and adding it to a 96-well culture plate using a multi-channel pipette. Repeating four times on the 96 well plate for each compound. Finally, a concentration gradient of 1:3.16 was formed in the 96-well plate with a maximum concentration of 10,000 nM. The • (5) Addition of Nano Luciferase Detection Reagent and Read […]

| Compound | pIC50 [1] | pIC50 (YAP-TEAD) |
| --- | --- | --- |
| C=CC(=O)Nc1cnc2c(c1)c1ccccc1c(=O)n2-c1ccc(C(F)(F)F)cc1 [Example T-242] | ≥ 6.00 | ≥ 6.00 |
| CNS(=O)(=O)c1ccc2c(c1)-c1cn(C)nc1CN2c1ccc(C(F)(F)F)cc1 [Example T-19] | ≥ 6.00 | ≥ 6.00 |
| C[C@@H](NC(=O)c1ccc2c(c1)c(=O)ccn2-c1ccc(C(F)(F)F)cc1)c1ccccn1 [Example T-34] | 5.30 to 6.00 | ≥ 6.00 |
| C[C@H](NC(=O)c1ccc2c(c1)c1nn(C)cc1c(=O)n2-c1ccc(C(F)(F)F)cc1)c1cccc(F)n1 [Example T-153] | ≥ 6.00 | ≥ 6.00 |
| CN[S+]([O-])c1ccc2c(c1)c1ncn(CCOC)c1c(=O)n2-c1ccc(C(F)(F)F)cc1 (centres unmarked) [Example T-47] | ≥ 6.00 | ≥ 6.00 |
| C[C@H](NC(=O)c1ccc2c(c1)c1c(c(=O)n2-c2ccc(C(F)(F)F)cc2)CCC1(F)F)c1ccccn1 [Example T-293] | ≥ 6.00 | ≥ 6.00 |
| C[C@H](NC(=O)c1ccc2c(c1)c1nn(C)cc1c(=O)n2-c1ccc(C(F)(F)F)cc1)c1ncccc1F [Example T-126] | ≥ 6.00 | ≥ 6.00 |
| C[C@H](NC(=O)c1cnc2c(c1)c1nn(C)cc1c(=O)n2-c1ccc(C(F)(F)F)cc1)c1ccccn1 [Example T-243] | ≥ 6.00 | ≥ 6.00 |
| Cc1cc(=O)n(-c2ccc(C(F)(F)F)cc2)c2ncc(C(=O)N[C@@H](C)c3ccccn3)cc12 [Example T-458] | ≥ 6.00 | ≥ 6.00 |
| C#CC(=O)Nc1ccc2c(c1)c1nn(C)cc1c(=O)n2-c1ccc(C(F)(F)F)cc1 [Example T-237] | ≥ 6.00 | ≥ 6.00 |
| O=C(O)c1ccc2c(c1)c(=O)ccn2-c1ccc(C(F)(F)F)cc1 [Example T-5] | 5.30 to 6.00 | ≥ 6.00 |
| C[C@H](NC(=O)c1ccc2c(c1)c1c(c(=O)n2C2CCC(F)(F)CC2)CCC1)c1ccccn1 [Example T-266] | ≥ 6.00 | ≥ 6.00 |
| Cc1ccc(S(=O)(=O)Nc2ccc3c(c2)c2nn(C)cc2c(=O)n3-c2ccc(C(F)(F)F)cc2)cc1 [Example T-189] | ≥ 6.00 | ≥ 6.00 |
| Cc1scc2c1c(=O)n(-c1ccc(C(F)(F)F)cc1)c1ccc(C(=O)N[C@@H](C)c3ccccn3)nc21 [Example T-386] | ≥ 6.00 | ≥ 6.00 |
| C[C@H](NC(=O)c1ccc2c(n1)c1cocc1c(=O)n2-c1ccc(C(F)(F)F)cc1)c1ccccn1 [Example T-389] | ≥ 6.00 | ≥ 6.00 |
| C[C@H](NS(=O)(=O)c1ccc2c(c1)c1nn(C)cc1c(=O)n2-c1ccc(OC(F)(F)F)cc1)c1ccccn1 [Example T-167] | 5.30 to 6.00 | 5.30 to 6.00 |

| Compound | pIC50 [1] | pIC50 (YAP-TEAD) |
| --- | --- | --- |
| Cc1cc(=O)n(-c2ccc(C(F)(F)F)cc2)c2ncc(C(=O)N[C@@H](C)c3ccccc3)cc12 [Example T-459] | ≥ 6.00 | ≥ 6.00 |
| C[C@H](NC(=O)c1ccc2c(c1)c1cccc(F)c1c(=O)n2-c1ccc(C(F)(F)F)cc1)c1ccccn1 [Example T-261] | ≥ 6.00 | 5.30 to 6.00 |
| Cc1ccc2c(=O)n(-c3ccc(C(F)(F)F)cc3)c3ccc(C(=O)N[C@@H](C)c4ccccn4)cc3c2c1 [Example T-255] | ≥ 6.00 | ≥ 6.00 |
| Cn1cc2c(=O)n(-c3ccc(C(F)(F)F)cc3)c3ccc(NC(=O)/C=C/CN4CCCC4)cc3c2n1 [Example T-179] | ≥ 6.00 | ≥ 6.00 |
| C[C@H](NC(=O)c1ccc2c(c1)c1nn(C)cc1c(=O)n2Cc1ccc(C(F)(F)F)cc1)c1ccccn1 [Example T-270] | ≥ 6.00 | ≥ 6.00 |
| C[C@H](NC(=O)c1cnc2c(c1)c1ccsc1c(=O)n2-c1ccc(C(F)(F)F)cc1)c1ccccn1 [Example T-378] | ≥ 6.00 | ≥ 6.00 |
| C[C@@H](NC(=O)c1ccc2c(c1)c1nn(C)cc1c(=O)n2-c1ccc(C(F)(F)F)cc1)c1ncccc1F [Example T-125] | 5.30 to 6.00 | 5.30 to 6.00 |
| Cn1cc2c(=O)n(-c3ccc(C(F)(F)F)cc3)c3ccc(NS(=O)(=O)c4ccccc4)cc3c2n1 [Example T-186] | ≥ 6.00 | ≥ 6.00 |
| Cc1scc2c(=O)n(-c3ccc(C(F)(F)F)cc3)c3ccc(C(=O)N[C@@H](C)c4ccccn4)nc3c12 [Example T-385] | ≥ 6.00 | ≥ 6.00 |
| C=CC(=O)NC(C)c1c(C)c2ccccc2n(-c2ccc(C(F)(F)F)cc2)c1=O (centres unmarked) [Example T-285] | 5.30 to 6.00 | 5.30 to 6.00 |
| CCn1cc2c(=O)n(-c3ccc(C(F)(F)F)cc3)c3ncc(C(=O)N[C@@H](C)c4ccccn4)cc3c2n1 [Example T-401] | ≥ 6.00 | ≥ 6.00 |
| C[C@@H]1CCc2c1c(=O)n(-c1ccc(C(F)(F)F)cc1)c1ccc(C(=O)N[C@@H](C)c3ccccn3)cc21 [Example T-446] | ≥ 6.00 | ≥ 6.00 |
| CN(C)CCCNC(=O)c1ccc2c(c1)c1nn(C)cc1c(=O)n2-c1ccc(C(F)(F)F)cc1 [Example T-118] | 5.30 to 6.00 | 5.30 to 6.00 |
| C[C@H](NC(=O)c1ccc2c(c1)c1c(cnn1CC(F)(F)F)c(=O)n2-c1ccc(C(F)(F)F)cc1)c1ccccn1 [Example T-411] | 5.30 to 6.00 | ≥ 6.00 |
| C[C@H](NC(=O)c1ccc2c(c1)c1cc(F)ccc1c(=O)n2-c1ccc(C(F)(F)F)cc1)c1ccccn1 [Example T-259] | ≥ 6.00 | ≥ 6.00 |
